Experimental data as given in PubChem BioAssay AID2060619 (Molecular Pharmacology Branch, DTP, NCI, 2025).
pIC50: −log10 of the molar value. Where “and” joins values, the source holds several entries; their conditions need not be identical. Equal values may be shown once.

Test system: 323965-272-R-J2-PDC complex spheroid viability
Test: Anticancer human tumor 323965-272-R-J2-PDC patient-derived pancreatic carcinoma cell line growth inhibition [CLK]
Conditions: for viability, T/C: stronger effect = lower value
Summary of the method: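 Multi-cell-type spheroids combined patient-derived tumor cells with HUVEC endothelial cells and human mesenchymal stem cells. Paired agents were dosed in half-log steps down from about clinical Cmax, or from 10 microM where Cmax was unknown.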

[1] = curve of first compound, second compound 0.0316 µM
[2] = curve of first compound, second compound 0.1 µM
[3] = curve of first compound, second compound 0.316 µM
[4] = curve of first compound, second compound 1 µM
[5] = curve of first compound, second compound 3.16 µM
[6] = curve of first compound, second compound 10 µM
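Also: spheroids exposed to agents for seven days before readout.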
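For viability, T/C in this document: percent of DMSO vehicle control wells so 100% = untreated growth.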

## C=CC(=O)Nc1cc(Nc2nccc(-c3cn(C)c4ccccc34)n2)c(OC)cc1N(C)CCN(C)C + CNC(=O)c1ccc(Nc2nc(OC3CCCC3)c3c(-c4ccc5nc(C)oc5c4)c[nH]c3n2)c(OC)c1
[1]
  pIC50: < 6.52
[2]
  pIC50: 6.77
[3]
  pIC50: 7.96
[4]
  pIC50: > 9.02
[5]
  pIC50: > 9.02
[6]
  pIC50: > 9.02
Second compound 0.0316 µM, first compound 0.000949 µM
  viability, T/C: 101%
Second compound 0.0316 µM, first compound 0.003 µM
  viability, T/C: 110%
Second compound 0.0316 µM, first compound 0.00949 µM
  viability, T/C: 86%
Second compound 0.0316 µM, first compound 0.03 µM
  viability, T/C: 85.1%
Second compound 0.0316 µM, first compound 0.0949 µM
  viability, T/C: 81.9%
Second compound 0.0316 µM, first compound 0.3 µM
  viability, T/C: 83.5%
Second compound 0.1 µM, first compound 0.000949 µM
  viability, T/C: 70.8%
Second compound 0.1 µM, first compound 0.003 µM
  viability, T/C: 71.8%
Second compound 0.1 µM, first compound 0.00949 µM
  viability, T/C: 62.8%
Second compound 0.1 µM, first compound 0.03 µM
  viability, T/C: 60.1%
Second compound 0.1 µM, first compound 0.0949 µM
  viability, T/C: 57.1%
Second compound 0.1 µM, first compound 0.3 µM
  viability, T/C: 44.8%
Second compound 0.316 µM, first compound 0.000949 µM
  viability, T/C: 54.5%
Second compound 0.316 µM, first compound 0.003 µM
  viability, T/C: 55.5%
Second compound 0.316 µM, first compound 0.00949 µM
  viability, T/C: 46.9%
Second compound 0.316 µM, first compound 0.03 µM
  viability, T/C: 48%
Second compound 0.316 µM, first compound 0.0949 µM
  viability, T/C: 40.5%
Second compound 0.316 µM, first compound 0.3 µM
  viability, T/C: 31.6%
Second compound 1 µM, first compound 0.000949 µM
  viability, T/C: 41.9%
Second compound 1 µM, first compound 0.003 µM
  viability, T/C: 39%
Second compound 1 µM, first compound 0.00949 µM
  viability, T/C: 40.7%
Second compound 1 µM, first compound 0.03 µM
  viability, T/C: 34.4%
Second compound 1 µM, first compound 0.0949 µM
  viability, T/C: 34.2%
Second compound 1 µM, first compound 0.3 µM
  viability, T/C: 26.8%
Second compound 3.16 µM, first compound 0.000949 µM
  viability, T/C: 36.6%
Second compound 3.16 µM, first compound 0.003 µM
  viability, T/C: 43.6%
Second compound 3.16 µM, first compound 0.00949 µM
  viability, T/C: 37.6%
Second compound 3.16 µM, first compound 0.03 µM
  viability, T/C: 34.6%
Second compound 3.16 µM, first compound 0.0949 µM
  viability, T/C: 28.5%
Second compound 3.16 µM, first compound 0.3 µM
  viability, T/C: 29%
Second compound 10 µM, first compound 0.000949 µM
  viability, T/C: 45.3%
Second compound 10 µM, first compound 0.003 µM
  viability, T/C: 39.3%
Second compound 10 µM, first compound 0.00949 µM
  viability, T/C: 38.8%
Second compound 10 µM, first compound 0.03 µM
  viability, T/C: 31.4%
Second compound 10 µM, first compound 0.0949 µM
  viability, T/C: 32.8%
Second compound 10 µM, first compound 0.3 µM
  viability, T/C: 27.7%

## C=C(F)C(=O)N1CCN(c2nc(OCC3CCCN3C)nc3c2CCN(c2cccc4cccc(Cl)c24)C3)CC1CC#N (stereo not given)
Compound 0.0316 µM
  viability, T/C: 64.5% and 64.8%
Compound 0.1 µM
  viability, T/C: 50.8% and 64.2%
Compound 0.316 µM
  viability, T/C: 48.9% and 63%
Compound 1 µM
  viability, T/C: 69.4% and 61.5%
Compound 3.16 µM
  viability, T/C: 66.8% and 77.9%
Curve of compound
  pIC50: 5.40 and < 5.00

## CCCS(=O)(=O)Nc1ccc(F)c(C(=O)c2c[nH]c3ncc(-c4ccc(Cl)cc4)cc23)c1F + CN1CCN(c2cc(C(=O)Nc3cc4cc(-c5cnn(C)c5)ccc4cn3)ccn2)CC1
[1]
  pIC50: < 5.00
[2]
  pIC50: < 5.00
[3]
  pIC50: > 7.50
[4]
  pIC50: > 7.50
[5]
  pIC50: > 7.50
[6]
  pIC50: > 7.50
Second compound 0.0316 µM, first compound 0.0316 µM
  viability, T/C: 97.9%
Second compound 0.0316 µM, first compound 0.1 µM
  viability, T/C: 102%
Second compound 0.0316 µM, first compound 0.316 µM
  viability, T/C: 102%
Second compound 0.0316 µM, first compound 1 µM
  viability, T/C: 111%
Second compound 0.0316 µM, first compound 3.16 µM
  viability, T/C: 101%
Second compound 0.0316 µM, first compound 10 µM
  viability, T/C: 78.7%
Second compound 0.1 µM, first compound 0.0316 µM
  viability, T/C: 68.4%
Second compound 0.1 µM, first compound 0.1 µM
  viability, T/C: 68.1%
Second compound 0.1 µM, first compound 0.316 µM
  viability, T/C: 80.1%
Second compound 0.1 µM, first compound 1 µM
  viability, T/C: 83%
Second compound 0.1 µM, first compound 3.16 µM
  viability, T/C: 84.7%
Second compound 0.1 µM, first compound 10 µM
  viability, T/C: 66.5%
Second compound 0.316 µM, first compound 0.0316 µM
  viability, T/C: 28.1%
Second compound 0.316 µM, first compound 0.1 µM
  viability, T/C: 26.3%
Second compound 0.316 µM, first compound 0.316 µM
  viability, T/C: 30.5%
Second compound 0.316 µM, first compound 1 µM
  viability, T/C: 34.7%
Second compound 0.316 µM, first compound 3.16 µM
  viability, T/C: 32.3%
Second compound 0.316 µM, first compound 10 µM
  viability, T/C: 35%
Second compound 1 µM, first compound 0.0316 µM
  viability, T/C: 4.7%
Second compound 1 µM, first compound 0.1 µM
  viability, T/C: 3.95%
Second compound 1 µM, first compound 0.316 µM
  viability, T/C: 3.77%
Second compound 1 µM, first compound 1 µM
  viability, T/C: 4.38%
Second compound 1 µM, first compound 3.16 µM
  viability, T/C: 4.19%
Second compound 1 µM, first compound 10 µM
  viability, T/C: 6.54%
Second compound 3.16 µM, first compound 0.0316 µM
  viability, T/C: 4.04%
Second compound 3.16 µM, first compound 0.1 µM
  viability, T/C: 4.11%
Second compound 3.16 µM, first compound 0.316 µM
  viability, T/C: 4.16%
Second compound 3.16 µM, first compound 1 µM
  viability, T/C: 4.42%
Second compound 3.16 µM, first compound 3.16 µM
  viability, T/C: 5.61%
Second compound 3.16 µM, first compound 10 µM
  viability, T/C: 6.54%
Second compound 10 µM, first compound 0.0316 µM
  viability, T/C: 4.15%
Second compound 10 µM, first compound 0.1 µM
  viability, T/C: 4.79%
Second compound 10 µM, first compound 0.316 µM
  viability, T/C: 4.2%
Second compound 10 µM, first compound 1 µM
  viability, T/C: 4.29%
Second compound 10 µM, first compound 3.16 µM
  viability, T/C: 4.87%
Second compound 10 µM, first compound 10 µM
  viability, T/C: 5.79%
